Assay results published in the NIST ThermoML archive (doi:10.1016/j.jct.2009.04.001).

Assays:
[1] = for surface tension liquid-gas: Pendant drop shape; for mass density: Liquid, Vibrating tube method
[2] = xn = mol fraction of the nth substance listed; conditions: for surface tension liquid-gas: Pendant drop shape; for mass density: 101 kPa, Liquid, Vibrating tube method

Cc1ccccc1C [1,2-dimethylbenzene]
[1]
Conditions	surface tension liquid-gas [mN/m]
298.15 K	29.86
303.15 K	29.18
308.15 K	28.61

[1], 101.33 kPa
Conditions	mass density [kg/m3]
298.15 K	875.09
303.15 K	870.86
308.15 K	866.64

COCCOC [1,2-dimethoxyethane] + Cc1ccc(C)cc1
[2]
Conditions	mass density [kg/m3]	surface tension liquid-gas [mN/m]
298.15 K, x1 = 0.1002	857.45	27.63
298.15 K, x1 = 0.2004	857.95	27.17
298.15 K, x1 = 0.2996	858.44	26.75
298.15 K, x1 = 0.4001	858.93	26.32
298.15 K, x1 = 0.5009	859.41	25.91
298.15 K, x1 = 0.5997	859.85	25.54
298.15 K, x1 = 0.7018	860.28	25.18
298.15 K, x1 = 0.8005	860.66	24.87
298.15 K, x1 = 0.8998	861.02	24.57
298.15 K, x1 = 1	861.36	24.27
303.15 K, x1 = 0.0999	853.1	27.12
303.15 K, x1 = 0.2007	853.58	26.67
303.15 K, x1 = 0.3002	854.06	26.24
303.15 K, x1 = 0.3999	854.52	25.82
303.15 K, x1 = 0.4999	854.97	25.41
303.15 K, x1 = 0.6001	855.4	25.03
303.15 K, x1 = 0.7011	855.81	24.68
303.15 K, x1 = 0.8003	856.19	24.37
303.15 K, x1 = 0.9003	856.52	24.05
303.15 K, x1 = 1	856.79	23.73
308.15 K, x1 = 0.0996	848.66	26.61
308.15 K, x1 = 0.1998	849.05	26.16
308.15 K, x1 = 0.2997	849.41	25.73
308.15 K, x1 = 0.4001	849.76	25.3
308.15 K, x1 = 0.4995	850.09	24.89
308.15 K, x1 = 0.6004	850.4	24.51
308.15 K, x1 = 0.6993	850.67	24.17
308.15 K, x1 = 0.7993	850.93	23.84
308.15 K, x1 = 0.8998	851.14	23.5
308.15 K, x1 = 1	851.24	23.16

Cc1ccc(C)cc1 [1,4-dimethylbenzene]
[1]
Conditions	surface tension liquid-gas [mN/m]
298.15 K	28.11
303.15 K	27.59
308.15 K	27.07

[1], 101.33 kPa
Conditions	mass density [kg/m3]
298.15 K	856.95
303.15 K	852.61
308.15 K	848.27

COCCOC [1,2-dimethoxyethane]
[1]
Conditions	surface tension liquid-gas [mN/m]
298.15 K	24.27
303.15 K	23.73
308.15 K	23.16

mass density [kg/m3], [1]
Conditions	298.15 K	303.15 K	308.15 K
101 kPa	–	856.8	–
101.33 kPa	861.36	856.79	851.24
